Reference: patent US11578073B2, “Xanthine analogs as potent anti-West Nile viral agents” (Southern Research Institute, priority 2019, dated 2023)

Each molecule was assayed on West Nile virus (assay: anti-West Nile virus activity of xanthine analogs in HEK293 cells). Conditions: HEK293, read-out: EC90 (effective concentration to inhibit 90% of virus).
Type: cell-based

Structure (SMILES)	EC90 [µM]
Cc1ccc(C)c(CN2CCN(c3nc4c([nH]3)c(=O)[nH]c(=O)n4C)CC2)c1 [Compound 7, 8-(4-(2,5-Dimethylbenzyl)piperazin-1-yl)-3-methyl-3,7-dihydro-1H-purine-2,6-dione]	> 10
Cc1ccc(C)c(CN2CCN(c3nc4c(c(=O)[nH]c(=O)n4C)n3Cc3cccnc3)CC2)c1 [Compound 10, 8-(4-(2,5-Dimethylbenzyl)piperazin-1-yl)-3-methyl-7-(pyridin-3-ylmethyl)-3,7-dihydro-1H-purine-2,6-dione]	> 10
Cn1c(=O)[nH]c(=O)c2c1nc(N1CCNCC1)n2Cc1ccccc1F [Compound 21, 7-(2-Fluorobenzyl)-3-methyl-8-(piperazin-1-yl)-3,7-dihydro-1H-purine-2,6-dione]	> 10
Cn1c(=O)[nH]c(=O)c2c1nc(N1CCN(C3CC3)CC1)n2Cc1ccccc1F [Compound 23, 8-(4-Cyclopropylpiperazin-1-yl)-7-(2-fluorobenzyl)-3-methyl-3,7-dihydro-1H-purine-2,6-dione]	> 10
Cn1c(=O)[nH]c(=O)c2c1nc(N1CCN(C(C)(C)C)CC1)n2Cc1ccccc1F [Compound 24, 8-(4-(tert-Butyl)piperazin-1-yl)-7-(2-fluorobenzyl)-3-methyl-3,7-dihydro-1H-purine-2,6-dione]	> 10
Cn1c(=O)[nH]c(=O)c2c1nc(N1CCN(C3CCC3)CC1)n2Cc1ccccc1F [Compound 25, 8-(4-Cyclobutylpiperazin-1-yl)-7-(2-fluorobenzyl)-3-methyl-3,7-dihydro-1H-purine-2,6-dione]	> 10
Cn1c(=O)[nH]c(=O)c2c1nc(N1CCN(c3ccc(C(C)(C)C)cc3)CC1)n2Cc1ccccc1F [Compound 29, 8-(4-(4-(tert-Butyl)phenyl)piperazin-1-yl)-7-(2-fluorobenzyl)-3-methyl-3,7-dihydro-1H-purine-2,6-dione]	> 10
Cn1c(=O)[nH]c(=O)c2c1nc(N1CCN(c3ccc(Cl)cc3F)CC1)n2Cc1ccccc1F [Compound 31, 8-(4-(4-Chloro-2-fluorophenyl)piperazin-1-yl)-7-(2-fluorobenzyl)-3-methyl-3,7-dihydro-1H-purine-2,6-dione]	> 10
Cn1c(=O)[nH]c(=O)c2c1nc(N1CCN(c3ccc(C#N)cn3)CC1)n2Cc1ccccc1F [Compound 32, 6-(4-(7-(2-Fluorobenzyl)-3-methyl-2,6-dioxo-2,3,6,7-tetrahydro-1H-purin-8-yl)piperazin-1-yl)nicotinonitrile]	> 10
Cn1c(=O)[nH]c(=O)c2c1nc(N1CCN(c3ccccn3)CC1)n2Cc1ccccc1F [Compound 33, 7-(2-Fluorobenzyl)-3-methyl-8-(4-(pyridin-2-yl)piperazin-1-yl)-3,7-dihydro-1H-purine-2,6-dione]	> 10
Cn1c(=O)[nH]c(=O)c2c1nc(N1CCN(C(=O)c3ccc(C(C)(C)C)nc3)CC1)n2Cc1ccccc1F [Compound 45, 8-(4-(6-(tert-Butyl)nicotinoyl)piperazin-1-yl)-7-(2-fluorobenzyl)-3-methyl-3,7-dihydro-1H-purine-2,6-dione]	> 10
Cc1ccc(C)c(CCN2CCN(c3nc4c(c(=O)[nH]c(=O)n4C)n3Cc3ccccc3F)CC2)c1 [Compound 46, 8-(4-(2,5-Dimethylphenethyl)piperazin-1-yl)-7-(2-fluorobenzyl)-3-methyl-3,7-dihydro-1H-purine-2,6-dione]	10.2
Cn1c(=O)[nH]c(=O)c2c1nc(N1CCN(CCc3ccc(C(C)(C)C)cc3)CC1)n2Cc1ccccc1F [Compound 47, 8-(4-(4-(tert-Butyl)phenethyl)piperazin-1-yl)-7-(2-fluorobenzyl)-3-methyl-3,7-dihydro-1H-purine-2,6-dione]	13.6
Cc1ccc(C)c(CC(=O)N2CCN(c3nc4c(c(=O)[nH]c(=O)n4C)n3Cc3ccccc3F)CC2)c1 [Compound 48, 8-(4-(2-(2,5-Dimethylphenyl)acetyl)piperazin-1-yl)-7-(2-fluorobenzyl)-3-methyl-3,7-dihydro-1H-purine-2,6-dione]	> 10
Cn1c(=O)[nH]c(=O)c2c1nc(N1CCN(CC(=O)c3ccc(C(C)(C)C)cc3)CC1)n2Cc1ccccc1F [Compound 49, 8-(4-(2-(4-(tert-butyl)phenyl)-2-oxoethyl)piperazin-1-yl)-7-(2-fluorobenzyl)-3-methyl-3,7-dihydro-1H-purine-2,6-dione]	> 10
Cn1c(=O)[nH]c(=O)c2c1nc(N1CCC(F)(F)C1)n2Cc1ccccc1F [Compound 51, 8-(3,3-Difluoropyrrolidin-1-yl)-7-(2-fluorobenzyl)-3-methyl-3,7-dihydro-1H-purine-2,6-dione]	> 10
Cn1c(=O)[nH]c(=O)c2c1nc(N1CCC(F)(F)CC1)n2Cc1ccccc1F [Compound 53, 8-(4,4-Difluoropiperidin-1-yl)-7-(2-fluorobenzyl)-3-methyl-3,7-dihydro-1H-purine-2,6-dione]	> 10
Cn1c(=O)[nH]c(=O)c2c1nc(N1CCC(C(C)(C)C)CC1)n2Cc1ccccc1F [Compound 54, 8-(4-(tert-Butyl)piperidin-1-yl)-7-(2-fluorobenzyl)-3-methyl-3,7-dihydro-1H-purine-2,6-dione]	1.5
Cn1c(=O)[nH]c(=O)c2c1nc(N1CCC(C(F)(F)F)CC1)n2Cc1ccccc1F [Compound 55, 7-(2-Fluorobenzyl)-3-methyl-8-(4-(trifluoromethyl)piperidin-1-yl)-3,7-dihydro-1H-purine-2,6-dione]	> 10
Cn1c(=O)[nH]c(=O)c2c1nc(N1CCC(c3ccc(C#N)cc3)CC1)n2Cc1ccccc1F [Compound 58, 4-(1-(7-(2-Fluorobenzyl)-3-methyl-2,6-dioxo-2,3,6,7-tetrahydro-1H-purin-8-yl)piperidin-4-yl)benzonitrile]	> 10
Cn1c(=O)[nH]c(=O)c2c1nc(N1CCC(Cc3ccc(C#N)cc3)CC1)n2Cc1ccccc1F [Compound 59, 4-((1-(7-(2-Fluorobenzyl)-3-methyl-2,6-dioxo-2,3,6,7-tetrahydro-1H-purin-8-yl)piperidin-4-yl)methyl)benzonitrile]	> 10
Cn1c(=O)[nH]c(=O)c2c1nc(N1CCC(Cc3ccc(F)cc3)CC1)n2Cc1ccccc1F [Compound 60, 7-(2-Fluorobenzyl)-8-(4-(4-fluorobenzyl)piperidin-1-yl)-3-methyl-3,7-dihydro-1H-purine-2,6-dione]	> 10
Cn1c(=O)[nH]c(=O)c2c1nc(N1CCC(Cc3cc(F)cc(F)c3)CC1)n2Cc1ccccc1F [Compound 61, 8-(4-(3,5-Difluorobenzyl)piperidin-1-yl)-7-(2-fluorobenzyl)-3-methyl-3,7-dihydro-1H-purine-2,6-dione]	> 10
Cn1c(=O)[nH]c(=O)c2c1nc(N1CCC(Cc3cccnc3)CC1)n2Cc1ccccc1F [Compound 62, 7-(2-Fluorobenzyl)-3-methyl-8-(4-(pyridin-3-ylmethyl)piperidin-1-yl)-3,7-dihydro-1H-purine-2,6-dione]	12.4
Cc1ccc(C)c(CNCCNc2nc3c(c(=O)[nH]c(=O)n3C)n2Cc2ccccc2F)c1 [Compound 63, 8-((2-((2,5-dimethylbenzyl)amino)ethyl)amino)-7-(2-fluorobenzyl)-3-methyl-3,7-dihydro-1H-purine-2,6-dione]	> 10
